≈ marks a conversion by molar mass, not a printed value. Where two headings read alike, the source gives them in different places. Residues, ends and D or L forms follow the SMILES beside them.
Experiments:
E. coli (W3110) = assay: MIC, microdilution, E. coli W3110; type: cell-based, Escherichia coli
[1] = tested on: norfloxacin-resistant clinical isolate of E. coli; assay: MIC, microdilution, norfloxacin-resistant clinical isolate of E. coli; type: cell-based, Escherichia coli; conditions: read-out: MIC E. coli (norfloxacin-resistant strain)
P. aeruginosa (PAO1) = assay: MIC, microdilution, P. aeruginosa PAO1; type: cell-based, Pseudomonas aeruginosa
[2] = tested on: K. pneumoniae (ATCC 10031); assay: MIC, K. pneumoniae ATCC 10031; type: cell-based, Klebsiella pneumoniae
S. aureus (CCUG1800T) = assay: MIC, microdilution, S. aureus CCUG1800T; type: cell-based, Staphylococcus aureus
[3] = tested on: S. aureus (ATCC 43300) MRSA; assay: MIC, microdilution, MRSA ATCC 43300; type: cell-based, Staphylococcus aureus; conditions: for MIC: norfloxacin-resistant strain
E. faecalis (ATCC 19433) = assay: MIC, E. faecalis ATCC 19433; type: cell-based, Enterococcus faecalis
[4] = tested on: M. tuberculosis (MC26020); assay: microbe, parasite or virus in culture; type: cell-based, Mycobacterium tuberculosis; conditions: for MIC: Mycobacterium tuberculosis, read-out: MIC M. tuberculosis (MC26020)
MreB in B. subtilis MW10 = assay: MreB mobility assay; type: cell-based, Bacillus subtilis; conditions: B. subtilis MW10, 1 h of antibiotic exposure
Description: MreB is an actin homologue that forms filamentous structures along the lateral axis of the cell. It moves along the length of the cells in a spiraling pattern thereby driving lateral peptidoglycan synthesis.[36],[37] MreB mobility is sensitive to inhibition of peptidoglycan synthesis and so far, every cell wall synthesis inhibitor we tested abolished MreB movement (see Figure S70 for examples).
Expression of msfGFP-MreB was induced with 0.3% xylose. Pictures were taken after 1 h of antibiotic exposure. Two images of the same field of view were recorded 30 s apart and overlaid in ImageJ to visualize MreB mobility. A perfect overlap (yellow) indicates stalled MreB movement, while distinct red and green foci are indicative of MreB mobility. Scale bar 2 μm.
Fig. S70: MreB motility in B. subtilis MW10 after treatment with different cell wall synthesis inhibitors. Expression of GFP-MreB was induced with 0.3% xylose. Cells were treated with 1x […]
Two images of the same field of view were recorded 30 sec apart and overlaid in ImageJ to visualize MreB mobility. A perfect overlap (yellow) indicates stalled MreB movement while distinct red and green spots are indicative of MreB mobility. Scale bar 2 µm.

[5] = tested on: MurG in B. subtilis TNVS175; assay: MurG localization; type: cell-based, Bacillus subtilis; conditions: 1x MIC; 30 min (vancomycin) or 1 h;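 further: normal MurG forms small membrane spots and peptidoglycan inhibition gives large clusters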
[6] = tested on: cell wall biosynthesis in B. subtilis DSM402; assay: Summary of cell wall synthesis experiments; type: cell-based, Bacillus subtilis
B. subtilis DSM402 [7] = conditions: for μM (concentration used, 1x MIC): Table 2, cells treated with 1x MIC
B. subtilis DSM402 [8] = assay: Peptidoglycan integrity assay (acetic acid/methanol fixation); conditions: 1x MIC; 30 min (cell wall inhibitors) or 60 min
E. coli [9] = conditions: for FICM (MICMcheckerboard/MICM): mupirocin alone 64 µg/mL
E. coli [10] = assay: microbe, parasite or virus in culture; conditions: Escherichia coli, read-out: MICC (MIC of the test compound alone)
E. coli W3110 = assay: Bacterial cytological profiling (BCP) in E. coli W3110; type: cell-based, Escherichia coli
E. coli BCB472 = assay: GlpT localization (inner membrane) in E. coli BCB472; conditions: 1x MIC, 1 h; GFP-tagged membrane protein
B. subtilis DSM402 [11] = assay: Bacterial cytological profiling (BCP) in B. subtilis DSM402; type: cell-based, Bacillus subtilis
[12] = Gram-negative strain, average of duplicate experiments, read-out: MIC E. coli (W3110)
[13] = norfloxacin-resistant clinical isolate
[14] = read-out: MIC S. aureus (CCUG1800T)
[15] = Escherichia coli, Gram-negative strain, average of duplicate experiments, read-out: MIC E. coli (W3110)
[16] = Klebsiella pneumoniae, ATCC10031
[17] = Enterococcus faecalis, ATCC19433
[18] = 1x MIC, 1 h, indicates cell lysis
[19] = interpretation of BCP in E. coli
[20] = interpretation of BCP in B. subtilis

`CCn1cc(C(=O)O)c(=O)c2cc(F)c(N3CCN(CN4C(=O)C(=O)c5cc(OC)ccc54)CC3)cc21` [20c] was tested, and the MIC (E. coli (W3110); [12]) was 4.91 µM (≈ 2.5 µg/mL), the MIC [1, 13] was 1006.88 µM (≈ 512 µg/mL) and the MIC (P. aeruginosa (PAO1)) was 62.93 µM (≈ 32 µg/mL). The MIC [2] was 503.44 µM (≈ 256 µg/mL), the MIC (S. aureus (CCUG1800T); [14]) was 31.46 µM (≈ 16 µg/mL) and the “fold more active than norfloxacin” value [3] was 6.3 fold. For the same compound, the MIC [3] was 15.73 µM (≈ 8 µg/mL), the MIC (E. faecalis (ATCC 19433)) was 251.72 µM (≈ 128 µg/mL) and the “MIC M. tuberculosis (MC26020)” value [4] was over 1006.88 µM.
tunicamycin was tested, and the MreB mobility (MreB in B. subtilis MW10) was “static”, the “protein localization MurG” value [5] was “patchy” and the “CWB inhibited?” value [6] was “yes”. The “μM (concentration used, 1x MIC)” value (B. subtilis DSM402 [7]) was 19.58 µM and the PG integrity (B. subtilis DSM402 [8]) was “compromised”.
With `CC(C)(N)[C@H](NC(=O)c1ccc(C#CC#C[C@@H]2C[C@H]2CO)cc1)C(=O)NO` [ACHN-975, reference compound] the “FICM (MICMcheckerboard/MICM)” value (E. coli [9]) was 0.0469, the “FICI (fractional inhibitory concentration index)” value (E. coli [9]; with mupirocin, FICC+FICM) was 0.2969 and the MIC (E. coli [10]) was 0.5 µg/mL.
In the case of `CC(C)C[C@@H]1NC(=O)[C@@H](Cc2ccccc2)NC(=O)[C@H](CCN)NC(=O)[C@@H](NC(=O)[C@H](CCN)NC(=O)[C@@H](N)[C@@H](C)O)CCNC(=O)[C@H]([C@@H](C)O)NC(=O)[C@H](CCN)NC(=O)[C@H](CCN)NC1=O` [PolBN, polymyxin B nonapeptide, reference compound] (HELM PEPTIDE1{T.[Dab].[Dab].[Dab].[dF].L.[Dab].[Dab].T}$PEPTIDE1,PEPTIDE1,3:R3-9:R2$$$V2.0; N-terminus assumed), the “FICI (fractional inhibitory concentration index)” value (E. coli [9]) is reported as 0.0234, the “MICC (MIC of the test compound alone)” value (E. coli [9]) is reported as 128 µg/mL and the “FICC (fractional inhibitory concentration of the test compound)” value (E. coli [9]; MICCcheckerboard/MICC) is reported as 0.0078. For the same compound, the “MICCcheckerboard (MIC of the test compound in checkerboard assay)” value (E. coli [9]; combined with mupirocin) was 1 µg/mL, the “FICM (MICMcheckerboard/MICM)” value (E. coli [9]) was 0.0156 and the “MICMcheckerboard (MIC of mupirocin in checkerboard assay)” value (E. coli [9]; mupirocin combined with the compound of the line) was 1 µg/mL.
`CCn1cc(C(=O)O)c(=O)c2cc(F)c(N3CCN(C(=O)CNc4ccc(Br)cc4)CC3)cc21` [4b] showed an MIC (E. coli (W3110); [15]) of 30.1 µM (≈ 16 µg/mL), an MIC ([1]; Escherichia coli) of over 964 µM and an MIC (P. aeruginosa (PAO1); Pseudomonas aeruginosa, PAO1) of 723 µM (≈ 384 µg/mL). The MIC [2, 16] was over 964 µM, the MIC (S. aureus (CCUG1800T); Staphylococcus aureus; Tab. S10, DNA gyrase side; strain not given, values equal S. aureus CCUG1800T of Table 1; read-out: MIC) was 1.88 µM (≈ 0.999 µg/mL) and the MIC (S. aureus (CCUG1800T); Staphylococcus aureus; read-out: MIC S. aureus (CCUG1800T)) was 1.88 µM (≈ 0.999 µg/mL). For the same compound, the MIC ([3]; Staphylococcus aureus) was over 964 µM, the MIC (E. faecalis (ATCC 19433); [17]) was 7.52 µM (≈ 4 µg/mL) and the MIC [4] was 3.76 µM (≈ 2 µg/mL).
With polymyxin B [PolB, reference compound] the “concentration (MIC against E. coli W3110)” value (E. coli (W3110); Tab. S11, concentrations represent MIC values) was 0.83 µM, the DAPI (E. coli W3110; 1x MIC, 1 h, DNA condensation) was “dispersed” and the phase contrast (E. coli W3110; [18]) was “dark”. The FM4-64 (E. coli W3110; 1x MIC, 1 h, membrane stain) was “patchy”, the gyrase inhibition (E. coli W3110; [19]) was “no” and the membrane damage (E. coli W3110; [19]) was “yes”. The GlpT (E. coli BCB472) was “dispersed”.
In the case of `CCn1cc(C(=O)O)c(=O)c2cc(F)c(N3CCN(C(=O)Cn4ccnc4)CC3)cc21` [8a], the MIC (E. coli (W3110); [15]) is reported as 4.67 µM (≈ 2 µg/mL), the MIC (E. coli (W3110); Escherichia coli, Tab. S10, topoisomerase IV side, strain not given, values equal E. coli W3110 of Table 1, read-out: MIC) is reported as 4.67 µM (≈ 2 µg/mL) and the MIC ([1]; Escherichia coli) is reported as 74.9 µM (≈ 32 µg/mL). For the same compound, the MIC (P. aeruginosa (PAO1); Pseudomonas aeruginosa, PAO1) was 150 µM (≈ 64 µg/mL), the MIC [2, 16] was 9.35 µM (≈ 4 µg/mL) and the MIC (S. aureus (CCUG1800T); Staphylococcus aureus, read-out: MIC S. aureus (CCUG1800T)) was 2.33 µM (≈ 0.996 µg/mL). The MIC ([3]; Staphylococcus aureus) was 299 µM (≈ 128 µg/mL), the MIC (E. faecalis (ATCC 19433); [17]) was 14 µM (≈ 6 µg/mL) and the MIC [4] was 2.33 µM (≈ 0.996 µg/mL).
`CCn1cc(C(=O)O)c(=O)c2cc(F)c(N3CCN(C(=O)CNNC(=O)c4ccncc4)CC3)cc21` [compound 16] was tested, and the MIC (E. coli (W3110); [12]) was 64.45 µM (≈ 32 µg/mL), the MIC [1, 13] was 32.22 µM (≈ 16 µg/mL) and the MIC (P. aeruginosa (PAO1)) was 515.61 µM (≈ 256 µg/mL). The MIC [2] was 12.08 µM (≈ 6 µg/mL), the MIC (S. aureus (CCUG1800T); Tab. S10, DNA gyrase side; strain not given, values equal S. aureus CCUG1800T of Table 1; read-out: MIC) was 2.01 µM (≈ 0.998 µg/mL) and the MIC (S. aureus (CCUG1800T); [14]) was 2.01 µM (≈ 0.998 µg/mL). For the same compound, the MIC [3] was 64.45 µM (≈ 32 µg/mL), the MIC (E. faecalis (ATCC 19433)) was 2.01 µM (≈ 0.998 µg/mL) and the “MIC M. tuberculosis (MC26020)” value [4] was 1 µM (≈ 0.496 µg/mL). The DAPI (B. subtilis DSM402 [11]; 1x MIC, 1 h, DNA condensation) was “condensed”, the phase contrast (B. subtilis DSM402 [11]; [18]) was “dark” and the FM4-64 (B. subtilis DSM402 [11]; 1x MIC, 1 h, membrane stain) was “patchy”. The gyrase inhibition (B. subtilis DSM402 [11]; [20]) was “yes”, the membrane damage (B. subtilis DSM402 [11]; [20]) was “yes” and the “CWB inhibited?” value [6] was “no”. For the same compound, the “concentration (MIC against B. subtilis DSM402)” value (B. subtilis DSM402 [7]; Tab. S13, concentrations represent MIC values) was 2.01 µM, the “μM (concentration used, 1x MIC)” value (B. subtilis DSM402 [7]) was 2.01 µM and the PG integrity (B. subtilis DSM402 [8]) was “intact”.

From article PMC10739246 (ACS Bio & Med Chem Au, 2023)
